Experimental data from patent publication US5276049A, “Cyclic urea derivatives, pharmaceutical compositions containing these compounds and methods of using the same” (Dr. Karl Thomae GmbH, priority 1991, dated 1994).
Counter-ions that a name gives are not always drawn.

What was measured:
mice = details: mouse, in vivo, 30 mg/kg
Human Thrombocytes = assay: Fibrinogen Binding to Human Thrombocytes (I125-fibrinogen, gel-filtered platelets); details: inhibition of I125-fibrinogen binding to gel-filtered human platelets, ADP, 20 minutes, ambient temperature; read-out: Fibrinogen Binding test IC50
Procedure, shortened: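 Gel-filtered human platelets (from citrated PRP, pH 7.4 Tris/citrate/glucose buffer) incubated 20 min at ambient temperature with test compound, CaCl2, ADP and I125-fibrinogen; non-specific binding with 3 mg/ml cold fibrinogen. Platelets spun through silicone oil, bound fibrinogen gamma-counted; IC50 from a concentration series.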

[1] = tested on: thrombocyte aggregation in platelet-rich plasma; assay: Antithrombotic effect: collagen-induced thrombocyte aggregation in platelet-rich plasma (Born and Cross); type: cell-based; details: human platelet-rich plasma, 10 minutes preincubation at 37° C., read-out: Inhibition of platelet aggregation EC50
Procedure, shortened: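 Human platelet-rich plasma (citrated 1:10, 3.14%) incubated with compound 10 min at 37 °C, then aggregation triggered by minimal collagen giving irreversible response. Optical density change tracked photometrically (Born and Cross); EC50 determined graphically as 50% inhibition of optical density change.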

[2] = tested on: collagen-induced thrombocyte aggregation; assay: Collagen-induced thrombocyte aggregation ex vivo after oral administration; type: in vivo; details: Rhesus monkeys, 1 mg/kg

SMILES	sedation (mice)	IC50 (Human Thrombocytes)	EC50 [1]	death of animals after intravenous administration (mice; iv)	duration of inhibition of collagen-induced thrombocyte aggregation ex vivo [2]
N=C(N)c1ccc(N2CCN(c3ccc(CCC(=O)O)cc3)S2(=O)=O)cc1 [1(66), 2-(4-amidino-phenyl)-5-[4-(2-carboxy-ethyl)-phenyl]-3,4-dihydro-2H,5H-1,2,5-thiadiazole-1,1-dioxide]	one animal was sedated	0.0091 µM	0.05 µM	–	–
Cc1nn(-c2ccc(C(=N)N)cc2)c(=O)n1-c1ccc(CCC(=O)O)cc1 [1(139), 2-(4-amidino-phenyl)-4-[4-(2-carboxy-ethyl)-phenyl]-5-methyl-4H-1,2,4-triazol-3-one]	one animal was sedated	0.0068 µM	0.03 µM	–	–
COC(=O)CCc1ccc(N2CCN(c3ccc(CN)cc3C)C2=O)cc1 [8(5), 1-(4-aminomethyl-2-methyl-phenyl)-3-[4-(2-methoxycarbonyl-ethyl)-phenyl]-imidazolidin-2-one]	–	3 µM	5.9 µM	–	–
Cc1nn(-c2ccc(C(=N)N)cc2)c(=O)n1-c1ccc(CCC(=O)OCC(C)C)cc1 [11(12), 2-(4-amidino-phenyl)-4-[4-(2-isobutyloxycarbonyl-ethyl)-phenyl]-5-methyl-4H-1,2,4-triazol-3-one hydrochloride]	–	0.043 µM	0.03 µM	–	–
COC(=O)C[S+]([O-])c1ccc(N2CCN(c3ccc(C(=N)N)cc3)C2=O)cc1 (centres unmarked) [18(5), 1-(4-amidino-phenyl)-3-(4-methoxycarbonylmethyl-sulphinyl-phenyl)-imidazolidin-2-one]	–	0.42 µM	0.12 µM	–	–
COC(=O)CCc1ccc(N2CCN(c3ccc4c(c3)CCC4N)C2=O)cc1 (centres unmarked) [31(1), 1-(1-amino-5-indanyl)-3-[4-(2-methoxycarbonyl-ethyl)-phenyl]-imidazolidin-2-one hydrochloride]	–	0.17 µM	0.37 µM	–	–
Cc1cn(-c2ccc(C(=N)N)cc2)c(=O)n1-c1ccc(CCC(=O)O)cc1 [Example 1(138), 1-(4-amidino-phenyl)-3-[4-(2-carboxy-ethyl)-phenyl]-4-methyl-3H-imidazol-2-one]	–	0.021 µM	0.04 µM	did not lead to the death of any of the three animals tested	–
N=C(N)c1ccc(-c2ccc(N3CCN(CC(=O)O)C3=O)cc2)cc1 [Example 1, 1-(4'-Amidino-4-biphenylyl)-3-carboxymethyl-imidazolidin-2-one]	–	1.8 µM	9.9 µM	–	–
COC(=O)CN1CCN(c2ccc(-c3ccc(C(=N)N)cc3)cc2)C1=O [Example 2, 1-(4'-Amidino-4-biphenylyl)-3-methoxycarbonylmethyl-imidazolidin-2-one hydrochloride]	–	6 µM	12 µM	–	–
COC(=O)NC(=N)c1ccc(-n2nc(C)n(-c3ccc(CCC(=O)OCC(C)C)cc3)c2=O)cc1 [Example 5(18), 4-[4-(2-isobutyloxycarbonyl-ethyl)-phenyl]-2-(4-methoxycarbonylamidino-phenyl)-5-methyl-4H-1,2,4-triazol-3-one]	–	> 10 µM	8.06 µM	–	up to 8 hours
CCOC(=O)CCc1ccc(-n2ccn(-c3ccc(C(=N)NC(=O)OCC)cc3)c2=O)cc1 [Example 5, 1-(4-Ethoxycarbonylamidino-phenyl)-3-[4-(2-ethoxycarbonyl-ethyl)-phenyl]-3H-imidazol-2-one]	–	9.3 µM	32 µM	–	–
COC(=O)COc1ccc(N2CCN(c3ccc(CN)cc3)C2=O)cc1 [Example 8, 1-(4-Aminomethyl-phenyl)-3-(4-methoxycarbonylmethyloxy-phenyl)-imidazolidin-2-one hydrochloride]	–	0.75 µM	0.6 µM	–	–
CC(=O)N(CCN1CCN(c2ccc(C(=N)N)cc2)C1=O)CC(=O)O [Example 30, 1-[2-(N-Acetyl-N-carboxymethyl-amino)-ethyl]-3-(4-amidino-phenyl)-imidazolidin-2-one]	–	4.4 µM	8.3 µM	–	–
COC(=O)CCc1ccc(N2CCN(c3ccc(C(C)N)cc3)C2=O)cc1 (centres unmarked) [Example 31, 1-[4-(1-Amino-ethyl)-phenyl]-3-[4-(2-methoxycarbonyl-ethyl)-phenyl]-imidazolidin-2-one hydrochloride]	–	0.25 µM	0.5 µM	–	–
